The values below come from patent publication US6987112B2, “Organic compound having cyano group and insecticides/miticides” (Nippon Soda Co., Ltd., priority 2000, dated 2006).

Structures are written as SMILES. Read-outs that look alike come from different tables or passages of the source.

The test system of data set [1] is susceptible Citrus red mite. The data set is described as follows: Effects on Citrus red mite (spray on adult females on Citrus leaf in Petri dish). Particulars: Panonychus citri, read-out: percentage mortality. In kind it is in vivo. The procedure:
Eight adult females of susceptible Citrus red mite were inoculated on the surface of Citrus leaf placed in a glass Petridish. […] The solution was sprayed on the mites using a rotary spraying tower up to the fixed volume. […] The test was carried out in duplicate.

The test system of another data set is Cotton Aphids. Description: Efficacy on cotton aphids (spray on 1st instar nymphs on cucumber leaves). The format is in vivo. The settings on record: 125 ppm spray, 25° C., 65% RH, five days later, duplicate.

Consider `Cn1nc(C(F)(F)F)c(C(OC(=O)C(C)(C)C)=C(C#N)Oc2ccc(Cl)cc2)c1Cl` [Compound No. 3-9, β-(5-chloro-1-methyl-3-trifluoromethylpyrazole-4-yl)-α-(4-chlorophenoxy)-β-pivaloyloxyacrylonitrile], for which the mortality at 125 ppm in data set [1] (125 ppm spray (wettable powder), adult females on Citrus leaf, 25° C., 65% RH, third day after spraying, duplicate) worked out at 100%; with Cotton Aphids (120 h, read-out: percentage mortality), 100%.
Take `Cc1cc(Cl)ccc1N=CN(C)C` [chlordimeform]: the mortality at 125 ppm in data set [1] is 13%.
Take `Cc1nc(N(C)C)nc(OC(=O)N(C)C)c1C` [pyrimicarb]: in the data set on Cotton Aphids, the percentage mortality is reported as 9%.

Usually mortality stands for the percentage killed.
